Source: patent US9771333B2, “Quinazoline derivatives as TAM family kinase inhibitors” (SIGNALCHEM LIFESCIENCES CORP., priority 2013, dated 2017)

How the values were obtained:
Format in all cases: biochemical
human Axl = target: T1, human Axl (Homo sapiens, UniProt P30530); assay: Kinase enzymatic activity assay (33P-radiolabeled phosphate transfer), Axl; settings: recombinant human Axl (473-end), poly(4:1 glu:tyr) substrate, 30 minutes
T1 construct: GST (N); made in house; host or cells: Sf9 insect cells (baculovirus)
T1 sequence (P30530 473-894 limits assumed): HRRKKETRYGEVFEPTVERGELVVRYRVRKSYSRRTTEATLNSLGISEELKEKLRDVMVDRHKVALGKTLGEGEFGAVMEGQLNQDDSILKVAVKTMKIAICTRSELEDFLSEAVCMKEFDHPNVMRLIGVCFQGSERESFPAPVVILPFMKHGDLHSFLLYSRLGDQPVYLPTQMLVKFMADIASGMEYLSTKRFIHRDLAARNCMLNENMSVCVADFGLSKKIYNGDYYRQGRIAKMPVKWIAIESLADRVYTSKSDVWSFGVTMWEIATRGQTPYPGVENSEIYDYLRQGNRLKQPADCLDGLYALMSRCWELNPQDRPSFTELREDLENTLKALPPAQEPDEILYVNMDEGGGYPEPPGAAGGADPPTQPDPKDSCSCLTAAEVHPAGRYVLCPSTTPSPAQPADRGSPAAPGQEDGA
Excerpt: (§1) The identification of compounds of the invention as Tyro3, Axl or Mer inhibitors was readily accomplished using the recombinant human Tyro3, Axl and Mer proteins and employing the ^33P-radiolabeled phosphate transfer assay for which the procedure is known to someone skilled in the art or as described in Example 9.
(§2) Recombinant human Tyro3 (455-end, the gene accession number NM_006293), human Axl (473-end, the gene accession number NM_021913) and human Mer (578-872, the gene accession number NM_006343) were independently expressed by baculovirus in Sf9 insect cells using an N-terminal GST tag. The recombinant proteins were stored at −70° C. in a medium containing 50 mM Tris-HCl, pH 7.5, 150 mM NaCl, 10 mM glutathione, 0.1 mM EDTA, 0.25 mM DTT, 0.1 mM PMSF and 25% glycerol. The recombinant proteins were aliquoted into smaller quantities after centrifugation to avoid repeated handling and multiple freeze/thaw cycles for the most favorable performance.
(§3) Kinase Assay Buffer: This buffer solution consisted of the following components: 25 mM MOPS, pH 7.2, 12.5 mM β-glycerol-phosphate, 25 mM MgCl2, 5 mM EGTA, 2 mM EDTA and DTT 0.25 mM which was added prior to use.
(§4) Kinase Dilution Buffer: Kinase Assay Buffer was diluted at a 1:4 ratio (5× dilution) with distilled water.
(§5) [^33P]-ATP assay cocktail: In a designated radioactive working area, a 250 μM [^33P]-ATP assay cocktail was prepared by the addition of the following components: 150 μL of 10 mM ATP stock solution, 100 μL [^33P]-ATP (1 mci/100 μL), and 5.75 mL of kinase assay buffer. This solution was stored in 1 mL aliquots at −20° C.
(§6) ATP stock solution (10 mM): The ATP stock solution was prepared by dissolving 55 mg of ATP in 10 mL of kinase assay buffer. It was stored in 200 μL aliquots at −20° C.
(§7) Active Kinase Stock Solution: The active recombinant kinase protein (0.1 μg/μL) was diluted with Kinase Dilution Buffer and the activity was assayed using a serial dilution method. The specific activity is expressed in nmoL/min/mg.
(§8) Substrates: poly(4:1 glu:tyr) is the substrate used for each kinase Tyro3, Axl and Mer: The peptide substrate was dissolved in water to give the final concentration of 1 mg/mL.
(§9) Test compound solution: Test compound was dissolved in DMSO to obtain a 10 mM solution. The assay solution was prepared by adding 5 μL of this solution to […] of 10% DMSO/water to obtain the final concentration of 50 μM.
(§10) The enzymatic activity of all three kinases was determined as follows. Using a 96-well plate, the wells were divided into three categories: Blank wells, […] and Test wells. In Test wells, 5 μL of the test compound solution and 5 μL of the substrate solution were added. In Control wells, 5 μL of 10% DMSO/water and 5 μL of the substrate solution were added. In Blank wells, 10 μL of 10% DMSO/water was added. To each well was added 10 μL of Active Kinase Stock Solution to make up the volume in each well to 20 μL. All test samples, controls and blanks were run in duplicate. The reaction was initiated by the addition of 5 μL of [^33P]-ATP assay cocktail, bringing the final volume up to 25 μL in every well. The mixture was incubated at room temperature for 30 minutes. The reaction was terminated by transferring 10 μL of the reaction mixture into a Millipore MultiScreen filter plate (cat. number MSPHN6B50). The filter plate was washed in a 1% phosphoric acid solution with constant gentle shaking for 15 minutes and this step was repeated once. After the plate was dried in air, scintillation fluid was added to each well and the radioactivity in each well in CPM was counted by a Microbeta TriLux. The corrected CPM in each test well was determined by subtracting the average value of Blank well values. Percentage of inhibition of the kinase enzymatic activity by the test compound was determined using the following formula: […]
(§11) The IC50 values were determined in a similar way following a serial dilution of the test compound. […]

human Mer = target: T2, human Mer (Homo sapiens, UniProt Q12866); assay: Kinase enzymatic activity assay (33P-radiolabeled phosphate transfer), Mer; settings: recombinant human Mer (578-872), poly(4:1 glu:tyr) substrate, 30 minutes
T2 construct: GST (N); made in house; host or cells: Sf9 insect cells (baculovirus)
T2 sequence (Q12866 578-872): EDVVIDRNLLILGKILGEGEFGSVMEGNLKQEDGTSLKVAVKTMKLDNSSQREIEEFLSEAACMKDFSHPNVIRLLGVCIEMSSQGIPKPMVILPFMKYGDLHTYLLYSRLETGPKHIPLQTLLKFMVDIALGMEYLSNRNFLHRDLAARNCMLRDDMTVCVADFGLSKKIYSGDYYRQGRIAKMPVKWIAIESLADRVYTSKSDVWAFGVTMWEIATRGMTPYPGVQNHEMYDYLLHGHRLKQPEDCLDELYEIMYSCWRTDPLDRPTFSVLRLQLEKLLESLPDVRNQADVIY
Excerpt: as §1, §2, §3, §4, §5, §6, §7, §8, §9, §10, §11

human Tyro3 = target: T3, human Tyro3 (Homo sapiens, UniProt Q06418); assay: Kinase enzymatic activity assay (33P-radiolabeled phosphate transfer), Tyro3; settings: recombinant human Tyro3 (455-end), poly(4:1 glu:tyr) substrate, 30 minutes
T3 construct: GST (N); made in house; host or cells: Sf9 insect cells (baculovirus)
T3 sequence (Q06418 455-890 limits assumed): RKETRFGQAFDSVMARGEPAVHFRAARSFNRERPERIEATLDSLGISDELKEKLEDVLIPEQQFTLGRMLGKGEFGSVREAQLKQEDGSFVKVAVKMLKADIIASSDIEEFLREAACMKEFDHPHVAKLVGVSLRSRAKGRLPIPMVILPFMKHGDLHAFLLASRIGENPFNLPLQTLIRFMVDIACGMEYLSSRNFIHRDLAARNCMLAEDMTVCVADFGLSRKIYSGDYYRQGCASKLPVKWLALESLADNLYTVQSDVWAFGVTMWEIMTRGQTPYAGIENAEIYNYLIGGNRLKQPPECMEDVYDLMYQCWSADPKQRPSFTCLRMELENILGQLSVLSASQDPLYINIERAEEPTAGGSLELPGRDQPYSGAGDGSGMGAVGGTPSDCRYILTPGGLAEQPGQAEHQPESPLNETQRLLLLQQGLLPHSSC
Excerpt: as §1, §2, §3, §4, §5, §6, §7, §8, §9, §10, §11

Structure (SMILES)	IC50 (human Axl) [µM]	IC50 (human Mer) [µM]	IC50 (human Tyro3) [µM]
FC(F)(F)c1csc(Nc2ncnc3cc(OCCCN4CCOCC4)cc(OC4CCOCC4)c23)n1 [Example 2.18, N-(7-(3-morpholinopropoxy)-5-((tetrahydro-2H-pyran-4-yl)oxy)quinazolin-4-yl)-4-(trifluoromethyl)thiazol-2-amine]	0.5 to 1	1 to 10	> 10
c1nc(Nc2nncs2)c2c(OC3CCOCC3)cc(OCCCN3CCOCC3)cc2n1 [Example 2.19, N-(7-(3-morpholinopropoxy)-5-((tetrahydro-2H-pyran-4-yl)oxy)quinazolin-4-yl)-1,3,4-thiadiazol-2-amine]	< 0.5	1 to 10	1 to 10
COc1cc(N2CCOCC2)cc2ncnc(Nc3nc(C(F)(F)F)cs3)c12 [Example 2.24, N-(5-methoxy-7-morpholinoquinazolin-4-yl)-4-(trifluoromethyl)thiazol-2-amine]	1 to 10	> 10	> 10
COc1cc(N2CCN(C)CC2)cc2ncnc(Nc3nc(C(F)(F)F)cs3)c12 [Example 2.25, N-(5-methoxy-7-(4-methylpiperazin-1-yl)quinazolin-4-yl)-4-(trifluoromethyl)thiazol-2-amine]	0.5 to 1	> 10	> 10
COC(=O)Cc1cccc(Oc2ncnc3cc(OCCCN4CCOCC4)cc(OC)c23)c1 [Example 2.27, methyl 2-(3-((5-methoxy-7-(3-morpholinopropoxy)quinazolin-4-yl)oxy)phenyl)acetate]	> 10	1 to 10	1 to 10
COc1cc(OCCCN2CCOCC2)cc2ncnc(Oc3cccc(C(=O)NCc4ccccc4)c3)c12 [Example 2.28, N-benzyl-3-((5-methoxy-7-(3-morpholinopropoxy)quinazolin-4-yl)oxy)benzamide]	> 10	> 10	> 10
COc1cc(OCCCN2CCOCC2)cc2ncnc(Oc3cccc(CC(=O)NCc4ccccc4)c3)c12 [Example 2.29, N-benzyl-2-(3-((5-methoxy-7-(3-morpholinopropoxy)quinazolin-4-yl)oxy)phenyl)acetamide]	> 10	> 10	1 to 10
COC(=O)Cc1cccc(Oc2ncnc3cc(OCCN4CCN(C)CC4)cc(OC4CCOCC4)c23)c1 [Example 2.31, methyl 2-(3-((7-(2-(4-methylpiperazin-1-yl)ethoxy)-5-((tetrahydro-2H-pyran-4-yl)oxy)quinazolin-4-yl)oxy)phenyl)acetate]	1 to 10	> 10	0.5 to 1
CN1CCN(CCOc2cc(OC3CCOCC3)c3c(Oc4cccc(CC(=O)NCc5ccccc5)c4)ncnc3c2)CC1 [Example 2.33, N-benzyl-2-(3-((7-(2-(4-methylpiperazin-1-yl)ethoxy)-5-((tetrahydro-2H-pyran-4-yl)oxy)quinazolin-4-yl)oxy)phenyl)acetamide]	1 to 10	> 10	0.5 to 1

The next lines start with the values.

IC50 (human Axl) [µM]	IC50 (human Mer) [µM]	IC50 (human Tyro3) [µM]	Structure (SMILES)
1 to 10	1 to 10	> 10	Cc1nnc(Nc2ncnc3cc(OCCCN4CCOCC4)cc(OC4CCOCC4)c23)s1 [Example 2.20, 5-methyl-N-(7-(3-morpholinopropoxy)-5-((tetrahydro-2H-pyran-4-yl)oxy)quinazolin-4-yl)-1,3,4-thiadiazol-2-amine]
< 0.5	< 0.5	1 to 10	c1csc(Nc2ncnc3cc(OCCCN4CCOCC4)cc(OC4CCOCC4)c23)n1 [Example 2.21, N-(7-(3-morpholinopropoxy)-5-((tetrahydro-2H-pyran-4-yl)oxy)quinazolin-4-yl)thiazol-2-amine]
1 to 10	> 10	> 10	FC(F)(F)c1nnc(Nc2ncnc3cc(OCCCN4CCOCC4)cc(OC4CCOCC4)c23)s1 [Example 2.22, N-(7-(3-morpholinopropoxy)-5-((tetrahydro-2H-pyran-4-yl)oxy)quinazolin-4-yl)-5-(trifluoromethyl)-1,3,4-thiadiazol-2-amine]
< 0.5	> 10	> 10	CN1CCC(COc2cc(OC3CCOCC3)c3c(Nc4nc(C(F)(F)F)cs4)ncnc3c2)CC1 [Example 2.23, N-(7-((1-methylpiperidin-4-yl)methoxy)-5-((tetrahydro-2H-pyran-4-yl)oxy)quinazolin-4-yl)-4-(trifluoromethyl)thiazol-2-amine]
> 10	> 10	1 to 10	COC(=O)c1cccc(Oc2ncnc3cc(OCCCN4CCOCC4)cc(OC)c23)c1 [Example 2.26, methyl 3-((5-methoxy-7-(3-morpholinopropoxy)quinazolin-4-yl)oxy)benzoate]
1 to 10	> 10	1 to 10	COC(=O)c1cccc(Oc2ncnc3cc(OCCN4CCN(C)CC4)cc(OC4CCOCC4)c23)c1 [Example 2.30, methyl 3-((7-(2-(4-methylpiperazin-1-yl)ethoxy)-5-((tetrahydro-2H-pyran-4-yl)oxy)quinazolin-4-yl)oxy)benzoate]
1 to 10	> 10	> 10	CN1CCN(CCOc2cc(OC3CCOCC3)c3c(Oc4cccc(C(=O)NCc5ccccc5)c4)ncnc3c2)CC1 [Example 2.32, N-benzyl-3-((7-(2-(4-methylpiperazin-1-yl)ethoxy)-5-((tetrahydro-2H-pyran-4-yl)oxy)quinazolin-4-yl)oxy)benzamide]
